Measured values reported in ChEMBL document CHEMBL3046375, “Antifungal activity of simple compounds with maleic anhydride or dimethylmaleimide structure against Botrytis cinerea” (J Pestic Sci, 2012).
≈ marks a conversion by molar mass, not a printed value.

What follows are compounds tested on Botrytis cinerea (assay: Antifungal actiivty against Botryotinia fuckeliana ACCC 30387 assessed as inhibition of radial growth after 3 days). Conditions: ACCC 30387, 72 h.
Type: functional

Row | MIC | SMILES
1 | 5 µg/mL (≈ 27.4 µM) | CCCCCC1=C(C)C(=O)OC1=O
2 | 10 µg/mL (≈ 41.1 µM) | CC1=C(C)C(=O)N(CCCc2ccccc2)C1=O
3 | 8 µg/mL (≈ 28.1 µM) | CCOC(=O)C(CC1=C(C)C(=O)OC1=O)C(=O)OCC
4 | 1 µg/mL (≈ 3.92 µM) | CC1=C(C)C(=O)N(c2ccc(F)c(F)c2F)C1=O
5 | 75 µg/mL (≈ 327 µM) | CC1=C(C)C(=O)N(CCc2ccccc2)C1=O
6 | 10 µg/mL (≈ 42.4 µM) | CC1=C(C)C(=O)N(c2ccc(Cl)cc2)C1=O
7 | 4 µg/mL (≈ 20.4 µM) | CCCCCCC1=C(C)C(=O)OC1=O
8 | 500 µg/mL (≈ 2300 µM) | O=C1OC(=O)c2cc(Cl)c(Cl)cc21
9 | 1000 µg/mL (≈ 5650 µM) | O=C1C=C(Br)C(=O)O1
10 | 3 µg/mL (≈ 23.8 µM) | CC1=C(C)C(=O)OC1=O
11 | 20 µg/mL (≈ 109 µM) | CC(=O)OCC1=C(C)C(=O)OC1=O
12 | 5 µg/mL (≈ 27.6 µM) | CCCCN1C(=O)C(C)=C(C)C1=O
13 | > 1000 µg/mL | O=C1OC(=O)c2c1ccc(Cl)c2Cl
14 | 50 µg/mL (≈ 170 µM) | CCCCCCCCCCCCN1C(=O)C(C)=C(C)C1=O
15 | > 1000 µg/mL | Cc1ccc2c(c1)C(=O)OC2=O
16 | 3 µg/mL (≈ 11.9 µM) | CCCCCCCCCCC1=C(C)C(=O)OC1=O
17 | 500 µg/mL (≈ 2270 µM) | O=C1OC(=O)c2c(F)c(F)c(F)c(F)c21
18 | 15 µg/mL (≈ 60.9 µM) | CC1=C(COC(=O)c2ccccc2)C(=O)OC1=O
19 | > 1000 µg/mL | O=C1OC(=O)c2c(Cl)ccc(Cl)c21
20 | 50 µg/mL (≈ 175 µM) | CC1=C(CNc2cc(Cl)cc(Cl)c2)C(=O)OC1=O
21 | 5 µg/mL (≈ 23.9 µM) | CCCCCCN1C(=O)C(C)=C(C)C1=O

Row | MIC | SMILES
22 | 10 µg/mL (≈ 48.8 µM) | CC1=C(CBr)C(=O)OC1=O
23 | 150 µg/mL (≈ 861 µM) | O=C1C=C(c2ccccc2)C(=O)O1
24 | 50 µg/mL (≈ 276 µM) | CC1=C(C)C(=O)N(CC(C)C)C1=O
25 | 10 µg/mL (≈ 38.4 µM) | CC1=C(C)C(=O)N(c2cccc([N+](=O)[O-])c2C)C1=O
26 | > 1000 µg/mL | O=C(O)c1ccc2c(c1)C(=O)OC2=O
27 | 1 µg/mL (≈ 4.97 µM) | CC1=C(C)C(=O)N(c2ccccc2)C1=O
28 | 100 µg/mL (≈ 599 µM) | O=C1OC(=O)C(Cl)=C1Cl
29 | 10 µg/mL (≈ 48.2 µM) | CC1=C(C)C(=O)N(C2CCCCC2)C1=O
30 | 5 µg/mL (≈ 23.2 µM) | CC1=C(C)C(=O)N(c2ccc(C)cc2)C1=O
31 | 80 µg/mL (≈ 434 µM) | CC1=C(CCC(=O)O)C(=O)OC1=O
32 | 5 µg/mL (≈ 23.2 µM) | CC1=C(C)C(=O)N(Cc2ccccc2)C1=O
33 | 10 µg/mL (≈ 41.5 µM) | CC1=C(C)C(=O)N(c2nc3ccccc3[nH]2)C1=O
34 | 5 µg/mL (≈ 25.6 µM) | CCCCCN1C(=O)C(C)=C(C)C1=O
35 | 50 µg/mL (≈ 211 µM) | CCCCCCCCN1C(=O)C(C)=C(C)C1=O
36 | 0.1 µg/mL (≈ 0.37 µM) | CC1=C(C)C(=O)N(c2cc(Cl)cc(Cl)c2)C1=O
37 | > 1000 µg/mL | CC1=C(CO)C(=O)OC1=O
38 | 125 µg/mL (≈ 440 µM) | O=C1OC(=O)C(CBr)=C1CBr
39 | 150 µg/mL (≈ 815 µM) | O=C1OC(=O)c2c(F)ccc(F)c21
40 | 25 µg/mL (≈ 162 µM) | CCCC1=C(C)C(=O)OC1=O
41 | 20 µg/mL (≈ 79.9 µM) | O=C1OC(=O)C(c2ccccc2)=C1c1ccccc1
42 | 500 µg/mL (≈ 3010 µM) | O=C1OC(=O)c2c(F)cccc21

Row | SMILES | MIC
43 | Nc1c(Cl)cc([N+](=O)[O-])cc1Cl [ALLISAN] | 0.1 µg/mL (≈ 0.483 µM)
44 | O=C1OC(=O)c2ccccc21 [PHTHALIC ANHYDRIDE] | > 1000 µg/mL
45 | O=C1C=CC(=O)O1 [MALEIC ANHYDRIDE] | 250 µg/mL (≈ 2550 µM)

The compounds below were run on Botrytis cinerea (assay: Antifungal actiivty against Botryotinia fuckeliana). Conditions: not given.
Type: functional

Row | MIC | SMILES
46 | 0.78 µg/mL (≈ 2 µM) | CCCCC1CC2=C(CC(C(O)CCCC)C3=C1C(=O)OC3=O)C(=O)OC2=O (stereo unspecified)
